test system: ATF4; assay: HEK-ATF4 High Content Imaging assay (prevention of Tunicamycin induced ISR); type: cell-based; conditions: Homo sapiens, Wild-type HEK293 cells, 6 h incubation, ATF4 signal ratio between nucleus and cytoplasm
Protocol: Example compounds were tested in the HEK-ATF4 High Content Imaging assay to assess their pharmacological potency to prevent Tunicamycin induced ISR. Wild-type HEK293 cells were plated in 384-well imaging assay plates at a density of 12,000 cells per well in growth medium (containing DMEM/F12, 10% FBS, 2 mM L-Glutamine, 100 U/mL Penicillin—100 μg/mL Streptomycin) and incubated at 37° C., 5% CO2. 24 h later, the medium was changed to 50 μL assay medium per well (DMEM/F12, 0.3% FBS, 2mM L-Glutamine, 100 U/mL Penicillin—100 μg/mL Streptomycin). Example compounds were serially diluted in DMSO, spotted into intermediate plates and prediluted with assay medium containing 3.3 […] Tunicamycin to give an 11-fold excess of final assay concentration. In addition to the example compound testing area, the plates also contained multiples of control wells for assay normalization purposes, wells containing Tunicamycin but no example compounds (High control), as well as wells containing neither example compound nor Tunicamycin (Low control). The assay was started by transferring 5 μL from the intermediate plate into the assay plates, followed by incubation for 6 h at 37° C., 5% CO2. Subsequently, cells were fixed (4% PFA in PBS, 20 min at r.t.) and submitted to indirect ATF4 immunofluorescence staining (primary antibody rabbit anti ATF4, clone D4B8, Cell Signaling Technologies; secondary antibody Alexa Fluor 488 goat anti-rabbit IgG (H+L), Thermofisher Scientific). Nuclei were stained using Hoechst dye (Thermofisher Scientific), and plates were imaged on an Opera Phenix High Content imaging platform equipped with 405 nm and 488 nm excitation. Finally, images were analyzed using script based algorithms. The main readout HEK-ATF4 monitored the ATF4 signal ratio between nucleus and cytoplasm. Tunicamycin induced an increase in the overall ATF4 ratio signal, which was prevented by ISR modulating example compounds. In addition, HEK-CellCount readout was derived from counting the number of stained nuclei corresponding to healthy cells. This readout served as an internal toxicity control.

IC50 | SMILES
500 to 2000 nM | O=C(COc1ccc(Cl)c(F)c1)N[C@H]1CC[C@H](C(=O)Nc2cc(C(F)(F)F)cc(C(F)(F)F)c2)NC1 [Example 33, (2R,5S)-N-[3,5-bis(trifluoromethyl)phenyl]-5-[2-(4-chloro-3-fluorophenoxy)acetamido]piperidine-2-carboxamide]
500 to 2000 nM | O=C(COc1ccc(Cl)c(F)c1)N[C@H]1CC[C@H](C(=O)Nc2ccn(C(F)(F)F)n2)NC1 [Example 34, (2R,5S)-5-[2-(4-chloro-3-fluorophenoxy)acetamido]-N-[1-(trifluoromethyl)-1H-pyrazol-3-yl]piperidine-2-carboxamide]
1 to 500 nM | O=C(COc1ccc(Cl)c(F)c1)N[C@H]1CC[C@H](C(=O)Nc2cccc(OC(F)(F)F)n2)NC1 [Example 37, (2R,5S)-5-[2-(4-chloro-3-fluorophenoxy)acetamido]-N-[6-(trifluoromethoxy)pyridin-2-yl]piperidine-2-carboxamide]
1 to 500 nM | O=C(COc1ccc(Cl)c(F)c1)N[C@H]1CC[C@H](C(=O)N2Cc3ccc(C(F)(F)F)cc3C2)NC1 [Example 40, 2-(4-chloro-3-fluorophenoxy)-N-[(3S,6R)-6-[5-(trifluoromethyl)-2,3-dihydro-1H-isoindole-2-carbonyl]piperidin-3-yl]acetamide]
1 to 500 nM | O=C(COc1ccc(Cl)c(F)c1)N[C@H]1CC[C@H](C(=O)N2Cc3ccc(OC(F)(F)F)cc3C2)NC1 [Example 41, 2-(4-chloro-3-fluorophenoxy)-N-[(3S,6R)-6-[5-(trifluoromethoxy)-2,3-dihydro-1H-isoindole-2-carbonyl]piperidin-3-yl]acetamide]
500 to 2000 nM | O=C(COc1ccc(Cl)c(F)c1)N[C@H]1CC[C@H](C(=O)NCc2cc(C(F)(F)F)on2)NC1 [Example 43, (2R,5S)-5-[2-(4-chloro-3-fluorophenoxy)acetamido]-N-{[5-(trifluoromethyl)-1,2-oxazol-3-yl]methyl}piperidine-2-carboxamide]
2000 to 15000 nM | O=C(COc1ccc(Cl)c(F)c1)N[C@H]1CC[C@H](C(=O)NCc2cc(C(F)(F)F)ccn2)NC1 [Example 44, (2R,5S)-5-[2-(4-chloro-3-fluorophenoxy)acetamido]-N-{[4-(trifluoromethyl)pyridin-2-yl]methyl}piperidine-2-carboxamide]
1 to 500 nM | O=C(COc1ccc(Cl)c(F)c1)N[C@H]1CC[C@H](C(=O)Nc2cncc(C(F)(F)F)n2)NC1 [Example 51, (2R,5S)-5-[2-(4-chloro-3-fluorophenoxy)acetamido]-N-[6-(trifluoromethyl)pyrazin-2-yl]piperidine-2-carboxamide]

Continued, compound first:

SMILES | IC50
O=C(COc1ccc(Cl)c(F)c1)N[C@H]1CC[C@H](C(=O)Nc2cc(C(F)(F)F)ccc2F)NC1 [Example 35, (2R,5S)-5-[2-(4-chloro-3-fluorophenoxy)acetamido]-N-[2-fluoro-5-(trifluoromethyl)phenyl]piperidine-2-carboxamide] | 500 to 2000 nM
O=C(COc1ccc(Cl)c(F)c1)N[C@H]1CC[C@H](C(=O)Nc2cccc(C(F)(F)F)c2F)NC1 [Example 36, (2R,5S)-5-[2-(4-chloro-3-fluorophenoxy)acetamido]-N-[2-fluoro-3-(trifluoromethyl)phenyl]piperidine-2-carboxamide] | 1 to 500 nM
O=C(COc1ccc(Cl)c(F)c1)N[C@H]1CC[C@H](C(=O)Nc2cc(C(F)(F)F)ccn2)NC1 [Example 38, (2R,5S)-5-[2-(4-chloro-3-fluorophenoxy)acetamido]-N-[4-(trifluoromethyl)pyridin-2-yl]piperidine-2-carboxamide] | 500 to 2000 nM
O=C(COc1ccc(Cl)c(F)c1)N[C@H]1CC[C@H](C(=O)Nc2ccc3c(c2)OC(F)(F)O3)NC1 [Example 39, (2R,5S)-5-[2-(4-chloro-3-fluorophenoxy)acetamido]-N-(2,2-difluoro-2H-1,3-benzodioxol-5-yl)piperidine-2-carboxamide] | 1 to 500 nM
Cn1nc(CNC(=O)[C@H]2CC[C@H](NC(=O)COc3ccc(Cl)c(F)c3)CN2)cc1C(F)(F)F [Example 42, (2R,5S)-5-[2-(4-chloro-3-fluorophenoxy)acetamido]-N-{[1-methyl-5-(trifluoromethyl)-1H-pyrazol-3-yl]methyl}piperidine-2-carboxamide] | 1 to 500 nM
O=C(COc1ccc(Cl)c(F)c1)N[C@H]1CC[C@H](C(=O)N2CCc3c2cccc3C(F)(F)F)NC1 [Example 45, 2-(4-chloro-3-fluorophenoxy)-N-[(3S,6R)-6-[4-(trifluoromethyl)-2,3-dihydro-1H-indole-1-carbonyl]piperidin-3-yl]acetamide] | 2000 to 15000 nM
O=C(COc1ccc(Cl)c(F)c1)N[C@H]1CC[C@H](C(=O)Nc2ccn(C3CC3(F)F)n2)NC1 (stereo partly drawn) [Example 46, (2R,5S)-5-[2-(4-chloro-3-fluorophenoxy)acetamido]-N-[1-(2,2-difluorocyclopropyl)-1H-pyrazol-3-yl]piperidine-2-carboxamide] | 2000 to 15000 nM
O=C(COc1ccc(Cl)c(F)c1)N[C@H]1CC[C@H](C(=O)NC2CCC(OC(F)(F)F)C2)NC1 (stereo partly drawn) [Example 47, (2R,5S)-5-[2-(4-chloro-3-fluorophenoxy)acetamido]-N-[3-(trifluoromethoxy)cyclopentyl]piperidine-2-carboxamide] | 500 to 2000 nM
O=C(COc1ccc(Cl)c(F)c1)N[C@H]1CC[C@H](C(=O)Nc2ccnc(C(F)(F)F)n2)NC1 [Example 49, (2R,5S)-5-[2-(4-chloro-3-fluorophenoxy)acetamido]-N-[2-(trifluoromethyl)pyrimidin-4-yl]piperidine-2-carboxamide] | 1 to 500 nM
CN1C[C@@H](NC(=O)COc2ccc(Cl)c(F)c2)CC[C@@H]1C(=O)Nc1cncc(C(F)(F)F)n1 [Example 52, (2R,5S)-5-[2-(4-chloro-3-fluorophenoxy)acetamido]-1-methyl-N-[6-(trifluoromethyl)pyrazin-2-yl]piperidine-2-carboxamide] | 1 to 500 nM

From US20230391725A1, “MODULATORS OF THE INTEGRATED STRESS RESPONSE PATHWAY” (Evotec International GmbH, priority 2020, published 2023)
